Results as given in patent publication US11231410B2, “Method for identifying a compound useful in mitigating and/or the treatment of a disease associated with abnormal astrocytic function” (Celica BIOMEDICAL, priority 2015, dated 2022).
pEC50: −log10 of the molar value. Read-outs that look alike come from different tables or passages of the source.

What was measured:
human HCAR1 (GPR81) = human HCAR1 (GPR81) (Homo sapiens, UniProt Q9BXC0); details: cited from earlier work; for EC50 (in words): Dvorak et al. 2012, qualitative statement; for agonist activity at GPR81: Dvorak et al. 2012; for pEC50: receptor activation, value from Dvorak et al. 2012
GPR81 [1] = molecular target: T1, GPR81 (Rattus norvegicus, UniProt B9UM24); details: from European Patent Application No. 13 173 446, cited from earlier work
T1 construct: endogenous in cells; host or cells: cultured primary rat astrocytes transfected only with the cAMP sensors Epac1-camps or AKAR2
T1 sequence (B9UM24 1-351): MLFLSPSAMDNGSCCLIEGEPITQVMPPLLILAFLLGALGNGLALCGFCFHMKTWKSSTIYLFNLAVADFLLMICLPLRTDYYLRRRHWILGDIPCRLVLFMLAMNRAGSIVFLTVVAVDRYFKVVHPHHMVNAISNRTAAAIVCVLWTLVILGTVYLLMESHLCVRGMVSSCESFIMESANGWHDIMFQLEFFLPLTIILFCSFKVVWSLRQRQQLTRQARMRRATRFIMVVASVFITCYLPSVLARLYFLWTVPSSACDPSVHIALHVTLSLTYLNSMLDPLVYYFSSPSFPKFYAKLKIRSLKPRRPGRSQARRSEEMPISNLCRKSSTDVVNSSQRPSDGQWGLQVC

GPR81 [2] = molecular target: T1, GPR81; test: FRET nano-sensor (Epac1-camps / AKAR2) measurement of cytosolic cAMP in single cultured astrocytes, GPR81 ligands; assay type: cell-based; details: for n decrease (cells with cAMP decrease): number of astrocytes responding with cAMP decrease; for n increase (cells with cAMP increase): number of astrocytes responding with cAMP increase; for n unresponsive (cells): number of unresponsive astrocytes; for % decrease (cells with cAMP decrease) / % increase (cells with cAMP increase) / % unresponsive (cells): share of all astrocytes tested; for responsiveness of cells (cAMP): compared with the high affinity molecule 3cl5hi
Source text: (§1) As described in the previous European Patent Application No. 13 173 446, the cAMP level may, be determined by fluorescence nano-sensors in the astrocyte. In particular, the cAMP level may be determined by expressing the plasmid for FRET construct Epac1-camps or AKAR2. FRET signal is reported as the ratio of YFP to CFP fluorescence signal. The change in FRET signals reflects change in [cAMP]i. The inventions comprises of using MD and cAMP measurements.
(§2) As described in the previous European Patent Application No. 13 173 446, the cAMP level may, for instance, be determined by fluorescence nano-sensors in the astrocyte. In particular, the cAMP level may be determined by expressing the plasmid for FRET construct Epac1-camps or AKAR2. FRET construct are examined with immersion objective for fluorescent light and confocal microscope or other fluorescent microscope. Cells were excited at 458 nm or other suitable excitation wavelength of light and images are acquired every time interval. Emission spectra are collected from spectral detector or other suitable wavelength of light. Two-channel (CFP and YFP) images are generated from light detector. YFP and CFP fluorescence intensities are quantified within a region of interest selected for individual cell expressing Epac1-camps or AKAR2 using software. FRET signal is reported as the ratio of YFP to CFP fluorescence signal after subtracting the background fluorescence from both YFP and CFP signals. The change in FRET signals reflects change in [cAMP]i.
(§3) Cultured astrocytes, e.g. isolated as previously described by Schwartz & Wilson (Glia. 1992; 5(1):75-80) or any other cell type isolated from animal tissues or clonal cell lines derived from human or animal sources are seeded onto coverslips and maintained in an adequate cell cultured medium. All chemicals were from Sigma Aldrich (St. Louis, Mo., USA) unless otherwise noted.
(§4) Astrocytes expressing Epac1-camps or AKAR2 FRET construct were examined with a Plan NeoFluoar 40×/1.3 Oil DIC immersion objective (Carl Zeiss, Jena, Germany) and 2-fold zoom factor using Zeiss LSM510 META confocal microscope (Carl Zeiss, Jena, Germany). Cells were excited at 458 nm and images (512×512) were acquired every 3.5 s or 7 s using Lambda stack acquisition. Emission spectra were collected from META detector in eight channels (lambda stack) ranging from 470 nm to 545 nm, each with a 10.7-nm width. Two-channel (CFP and YFP) images were generated from lambda stacks by analytical software “Extract channels”. Channels with emission spectra 470- and 481-nm and emission spectra 513-, 524-, and 534-nm were extracted to CFP channel and YFP channel, respectively. YFP and CFP fluorescence intensities were quantified within a region of interest selected for individual cell expressing Epac1-camps or AKAR2 using LSM 510 META software. In the graphs, FRET signal is reported as the ratio of YFP to CFP fluorescence signal after subtracting the background fluorescence from both YFP and CFP signals using Sigma Plot.
(§5) The values of FRET signals were normalized (set to 1.0) at the onset of the experiments and averaged. The decrease in FRET signals in Epac1-camps experiments reflects an increase in [cAMP]i and the increase in FRET signals in AKAR2 experiments reflects increase in [cAMP]i.
(§6) Initially, astrocytes were kept in standard extracellular solution (10 mM Hepes/NaOH, pH 7.2, 10 mM D-glucose, 131.8 mM NaCl, 1.8 mM CaCl2, 2 mM MgCl2, and 5 mM KCl) and then treated with various reagents following a 100 s baseline.

human HCA1 = human HCA1 (Homo sapiens, UniProt Q9BXC0); details: compared versus HCA2, Liu et al. 2012; cited from earlier work
Adrener. = test: FRET nano-sensor measurement of cytosolic cAMP in single cultured astrocytes, adrenergic stimulus; assay type: cell-based, rat
Source text: as §1, §2, §3, §4, §5, §6

human HCAR1 (GPR81), sequence (Q9BXC0 whole entry): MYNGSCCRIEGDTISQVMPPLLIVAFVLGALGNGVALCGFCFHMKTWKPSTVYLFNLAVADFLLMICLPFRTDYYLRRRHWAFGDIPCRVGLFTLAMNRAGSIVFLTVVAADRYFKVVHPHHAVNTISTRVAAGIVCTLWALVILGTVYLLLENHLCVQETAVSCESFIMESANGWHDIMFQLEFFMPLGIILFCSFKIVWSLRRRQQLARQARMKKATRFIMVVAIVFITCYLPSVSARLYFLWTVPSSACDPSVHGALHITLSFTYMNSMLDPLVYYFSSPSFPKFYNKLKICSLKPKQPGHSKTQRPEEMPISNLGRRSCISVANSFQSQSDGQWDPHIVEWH
human HCA1, sequence (Q9BXC0 whole entry): as above

| Compound | EC50 (in words) (human HCAR1 (GPR81)) | n decrease (cells with cAMP decrease) (GPR81 [2]) | n increase (cells with cAMP increase) (GPR81 [2]) | n unresponsive (cells) (GPR81 [2]) | % decrease (cells with cAMP decrease) (GPR81 [2]) | % increase (cells with cAMP increase) (GPR81 [2]) | % unresponsive (cells) (GPR81 [2]) | also measured |
| --- | --- | --- | --- | --- | --- | --- | --- | --- |
| O=C(O)c1cc(O)cc(Cl)c1 [Ligand 3cl5hi, 3-chloro-5-hydroxybenzoic acid, reference compound] | relatively low EC50 | 0 (0%) | 21 | 14 | 0 (0%) | (60%) | 40% | agonist activity at GPR81 (human HCAR1 (GPR81)): agonists; intracellular cAMP levels in astrocytes (FRET ratio YFP/CFP) (GPR81 [1]; 500 μM 3-Cl-5-HBA, AKAR2 sensor, FIG. 9d): increases intracellular cAMP levels |
| O=C(O)c1cc(O)cc(F)c1 [Ligand 3f5hi, 3-fluoro-5-hydroxybenzoic acid, reference compound] | relatively low EC50 |  |  |  |  |  |  | agonist activity at GPR81 (human HCAR1 (GPR81)): agonists |
| Lactic acid/lactate [lakta] |  |  |  |  |  |  |  | intracellular cAMP levels in astrocytes (FRET ratio YFP/CFP) (GPR81 [1]; 20 mM lactate, Epac1-camps and AKAR2 sensors, FIG. 9b-c): increases intracellular cAMP levels |
| O=C(O)c1cc(O)cc(O)c1 [oh, 3,5-dihydroxybenzoic acid] |  |  |  |  |  |  |  | selectivity for human HCA1 (human HCA1): selective agonist |
| CC(C)(C)c1cc(O)cc(C(=O)O)c1 [but, 3-tertbutyl-5-hydroxybenzoic acid] | relatively high EC50 | 4 | 29 | 6 | 10% | (75%) | 15% | pEC50 (human HCAR1 (GPR81)): < 3.00; responsiveness of cells (cAMP) (GPR81 [2]): responded much better |
| O=C(O)c1cc(O)cc(-c2ccccc2)c1 [ph, 3-phenyl-5-hydroxybenzoic acid] | relatively high EC50 |  |  |  |  |  |  |  |
| NC[C@H](O)c1ccc(O)c(O)c1 [Norepinephrine] |  |  |  |  |  |  |  | n decrease (cells with cAMP decrease) (Adrener.; number of astrocytes responding with cAMP decrease): 0 (0%); n increase (cells with cAMP increase) (Adrener.; number of astrocytes responding with cAMP increase): 11; n unresponsive (cells) (Adrener.; number of unresponsive astrocytes): 3; % decrease (cells with cAMP decrease) (Adrener.; share of all astrocytes tested): 0 (0%); % increase (cells with cAMP increase) (Adrener.; share of all astrocytes tested): (79%); % unresponsive (cells) (Adrener.; share of all astrocytes tested): 21% |
| COc1cc(O)cc(C(=O)O)c1 [metoxi, 3-methoxy-5-hydroxybenzoic acid] | relatively high EC50 | 3 | 34 | 15 | 6% | (65%) | 29% | pEC50 (human HCAR1 (GPR81)): < 3.00; responsiveness of cells (cAMP) (GPR81 [2]): responded much better |
